Results published in PubChem BioAssay AID449750 (Broad Institute, 2010).
Where “and” joins values, the source holds several entries; their conditions need not be identical. Equal values may be shown once. Calls of active or inactive are those of the source. No rule for the calls is given here.

Assay: non-covalent RecA intein splicing inhibitors, dose response, biochemical, cell-free, fluorescence, secondary screen (AID 449750)

Question: Which AC50 does the source give for `COC(=O)c1c(C)oc2ccc(N(C(=O)c3ccncc3)S(=O)(=O)c3ccc4ccccc4c3)cc12` here?
Answer: > 38 µM (inactive)

Question: Which AC50 does the source give for `CC1=NN(c2ccc(S(=O)(=O)O)cc2C)C(=O)C1` here?
Answer: 6.31 µM

Question: Which AC50 does the source give for `O=C(Oc1ccc(C(=S)N2CCOCC2)cc1)c1ccc([N+](=O)[O-])cc1[N+](=O)[O-]` here?
Answer: > 38 µM (inactive)

Question: Which AC50 does the source give for `COc1ccc(OC)c(C2C(C#N)=C(N)Oc3c2c(C)nn3-c2cccc(Cl)c2)c1` (centres undefined) here?
Answer: 30 µM

Question: With `O=[N+]([O-])c1cc([N+](=O)[O-])c2cc3ccccc3nc2c1` as the compound, how does the AC50 read?
Answer: 7.29 µM

Question: With `O=C(CSc1c2c(nc3cc(Cl)ccc13)CCCC2)NCc1ccco1` as the compound, how does the AC50 read?
Answer: 26.4 µM

Question: For `Cc1[nH]n(C(C)(C)C)c(=O)c1Sc1ccccc1`, which AC50 is on record?
Answer: > 38 µM (inactive)

Question: For `Oc1cccc(Nc2nc(-c3ccccc3Cl)nc3ccccc23)c1`, which AC50 is on record?
Answer: > 38 µM (inactive)

Question: With `CCn1c(O)c(N=Nc2cccc(S(=O)(=O)N3CCOCC3)c2)c(=O)n(CC)c1=S` as the compound, how does the AC50 read?
Answer: > 38 µM (inactive)

Question: Which AC50 does the source give for `O=C(CCl)N1c2ccccc2OCC1c1ccccc1` (centres undefined) here?
Answer: 12.7 µM

Question: Which AC50 does the source give for `CCC(CNc1cc(OC)cc2cccnc12)NC1CCCCC1` (centres undefined) here?
Answer: 6.86 µM

Question: For `COc1ccc(CNC(=O)c2nc(S(=O)(=O)Cc3ccccc3)ncc2Cl)cc1`, which AC50 is on record?
Answer: > 38 µM (inactive)

Question: Which AC50 does the source give for `COc1ccc(N(C(=O)CCl)C(C(=O)NCCc2ccccc2)c2cccs2)cc1` (centres undefined) here?
Answer: 0.958 µM

Question: For `CC1CCCC(NC(=O)NC(=O)CCl)C1C` (centres undefined), which AC50 is on record?
Answer: 29.3 µM

Question: With `O=C1CCN(S(=O)(=O)c2ccccc2)N1` as the compound, how does the AC50 read?
Answer: > 38 µM (inactive)

Question: Which AC50 does the source give for `N#CC1=C(N)Oc2n[nH]c(-c3ccc(F)cc3)c2C1c1ccncc1` (centres undefined) here?
Answer: 8.32 µM

Question: Which AC50 does the source give for `O=C(Nc1ccccc1)c1nnsc1S(=O)(=O)c1ccc(Cl)cc1` here?
Answer: > 38 µM (inactive)

Question: With `Cc1ccc(N2C(=O)NC(=O)/C(=C/c3ccc(OC(=O)c4cccs4)cc3)C2=O)cc1` as the compound, how does the AC50 read?
Answer: 5.9 µM

Question: Which AC50 does the source give for `O=C(CSc1nnc(Cc2ccccc2)o1)Nc1cccc(F)c1` here?
Answer: > 38 µM (inactive)

Question: For `CS(=O)(=O)c1ccc(C(=O)OCC(=O)NC23CC4CC(CC(C4)C2)C3)cc1[N+](=O)[O-]`, which AC50 is on record?
Answer: > 38 µM (inactive)

Question: Which AC50 does the source give for `O=C(O)CC1S/C(=N/N=C/c2ccc(-c3ccccc3[N+](=O)[O-])o2)NC1=O` (centres undefined) here?
Answer: 9.4 µM

Question: With `CCOC(=O)C1CCC2(CC1)C(C#N)=C(N)Oc1n[nH]c(C)c12` (centres undefined) as the compound, how does the AC50 read?
Answer: > 38 µM (inactive)

Question: With `O=C1C=C(N2CCCCC2)c2ccccc2C1=O` as the compound, how does the AC50 read?
Answer: 10.4 µM

Question: With `CS/C(=C/[N+](=O)[O-])Nc1cccc2c1C(C)CC2(C)C` (centres undefined) as the compound, how does the AC50 read?
Answer: > 38 µM (inactive)

Question: With `CC(C)c1ccc(/C=N/NC(=O)c2nnn(-c3nonc3N)c2CSC2=NCCS2)cc1` as the compound, how does the AC50 read?
Answer: 27.6 µM

Question: With `COc1ccc(Br)cc1[C@H]1[C@@H]2C=CCC[C@@]2(C)C(=O)N1Cc1ccccc1` as the compound, how does the AC50 read?
Answer: > 38 µM (inactive)

Question: With `COc1ccc(N2C(=O)C(Cl)=C(Oc3cccc(OC)c3)C2=O)cc1` as the compound, how does the AC50 read?
Answer: > 38 µM (inactive)

Question: With `CSc1nnc(NC(=O)c2nc(S(=O)(=O)Cc3ccc(C)cc3)ncc2Cl)s1` as the compound, how does the AC50 read?
Answer: > 38 µM (inactive)

Question: Which AC50 does the source give for `CC1=C(C)/C(=N\OS(=O)(=O)c2ccccc2)C=CC1=O` here?
Answer: > 38 µM (inactive)

Question: For `CC(=O)C1=C(c2ccc(Br)cc2)C(=O)c2ccccc2C1=O`, which AC50 is on record?
Answer: 7.18 µM

Question: Which AC50 does the source give for `Cc1oc2c(c1C(=O)NCc1cccnc1)C(=O)c1ccccc1C2=O` here?
Answer: 1.4 µM

Question: Which AC50 does the source give for `CC(C)c1nnc(NC(=O)CCS(=O)(=O)c2nc(-c3cccs3)cc(C(F)(F)F)n2)s1` here?
Answer: > 38 µM (inactive)

Question: Which AC50 does the source give for `COc1ccc(CC(=O)O/N=C(\N)Cc2cccc3ccccc23)cc1OC` here?
Answer: > 38 µM (inactive)

Question: For `Cc1cc(C(=O)N/N=C/c2c(C)[nH]n(-c3ccccc3)c2=O)n[nH]1`, which AC50 is on record?
Answer: 3.74 µM

Question: Which AC50 does the source give for `O=C(CCl)c1cc2c3c(c1)CC(=O)N3CCC2` here?
Answer: > 38 µM (inactive)

Question: With `O=C(Cc1cc(=O)[nH][nH]1)N/N=C/C(Cl)=C/c1ccccc1` as the compound, how does the AC50 read?
Answer: 19.8 µM and 11.1 µM

Question: With `Cc1ccccc1N(Cc1cc(=O)[nH]c2ccccc12)C(=O)CCl` as the compound, how does the AC50 read?
Answer: 8.32 µM

Question: With `COc1ccc(CNc2ccc3cn[nH]c3c2)c(OC)c1OC` as the compound, how does the AC50 read?
Answer: 14 µM

Question: For `COc1ccc(S(=O)(=O)c2cnc3ccccc3n2)cc1`, which AC50 is on record?
Answer: > 38 µM (inactive)

Question: With `Oc1ccc(Nc2nc(-c3ccc4ccccc4c3)cs2)cc1` as the compound, how does the AC50 read?
Answer: > 38 µM (inactive)

Question: For `Cc1ccc(C)c(-c2ccc(=O)n(Cc3cccc(Br)c3)n2)c1`, which AC50 is on record?
Answer: 16.7 µM

Question: For `CN1C(=O)C(Cc2ccc3c(c2)OCO3)C(=O)N(C)C1=O`, which AC50 is on record?
Answer: > 38 µM (inactive)

Question: With `CC(=O)Oc1cc2c(cc1Cl)C1(CC(c3ccccc3Cl)O2)CC(C)(C)NC(=S)N1` (centres undefined) as the compound, how does the AC50 read?
Answer: 23.8 µM

Question: With `C/C(=N\NC(=O)c1ccncc1)c1cc2ccccc2oc1=O` as the compound, how does the AC50 read?
Answer: > 38 µM (inactive)

Question: Which AC50 does the source give for `CCOC(=O)c1c(NC(=O)/C=C/C(=O)O)sc(C)c1-c1ccc(C)c(C)c1` here?
Answer: 10.7 µM

Question: With `CC1=NN(c2cccc(Cl)c2)C(=O)C12CC(C)=C(C)CS2` (centres undefined) as the compound, how does the AC50 read?
Answer: 21.7 µM

Question: For `COc1cc(C(c2c(C)[nH][nH]c2=O)c2c(C)[nH][nH]c2=O)cc([N+](=O)[O-])c1O`, which AC50 is on record?
Answer: 10.7 µM

Question: Which AC50 does the source give for `COC(=O)c1sc(N)c(C(=O)OC)c1Cn1ncc(Cl)c(Cl)c1=O` here?
Answer: > 38 µM (inactive)

Question: Which AC50 does the source give for `O=C(/C=C/c1ccco1)c1ccc(NC(=O)C23CC4CC(CC(C4)C2)C3)cc1` here?
Answer: 12.9 µM

Question: Which AC50 does the source give for `COc1cc(/C=C/c2cc[n+](C)cc2)ccc1OCC(=O)Nc1ccc(Cl)c(Cl)c1` here?
Answer: > 38 µM (inactive)

Question: Which AC50 does the source give for `COc1ccc(/C=C2/C(=O)N(c3ccccc3)N=C2C)cc1Br` here?
Answer: 5.66 µM

Question: With `O=c1[nH]c(CCl)nc2cc(-c3ccc(F)cc3)sc12` as the compound, how does the AC50 read?
Answer: 11.9 µM

Question: Which AC50 does the source give for `CCOc1ccccc1Nc1nnc(Cc2ccccc2Cl)c(=O)[nH]1` here?
Answer: > 38 µM (inactive)

Question: For `COC(=O)c1ccc(NC(=O)c2nc(S(=O)(=O)Cc3cccc(C)c3)ncc2Cl)cc1`, which AC50 is on record?
Answer: 17.1 µM

Question: Which AC50 does the source give for `O=C(O)/C=C/C(=O)Nc1ccc(C2(c3ccc(NC(=O)/C=C/C(=O)O)cc3)c3ccccc3-c3ccccc32)cc1` here?
Answer: 4.61 µM

Question: With `Oc1cc(O)c2c(c1)O[C@H](c1ccc(O)c(O)c1)[C@H](O)C2` as the compound, how does the AC50 read?
Answer: > 38 µM (inactive)

Question: For `CCOC(=O)c1nnc(-c2ccccc2)nc1Sc1c(Cl)cccc1Cl`, which AC50 is on record?
Answer: > 38 µM (inactive)

Question: Which AC50 does the source give for `O=C(NC1(O)C(=O)c2ccccc2C1=O)c1ccccc1` here?
Answer: 9.46 µM

Question: For `CCOc1cc(C2C(C#N)=C(N)Oc3n[nH]c(CC)c32)ccc1OCCN1CCOCC1` (centres undefined), which AC50 is on record?
Answer: > 38 µM (inactive)

Question: With `Cn1cnc([N+](=O)[O-])c1S(=O)(=O)c1ccc(Cl)cc1` as the compound, how does the AC50 read?
Answer: > 38 µM (inactive)

Question: Which AC50 does the source give for `O=C(O)c1ccc([N+](=O)[O-])c2c1C(=O)c1ccccc1C2=O` here?
Answer: > 38 µM (inactive)

Question: For `COC(=O)N/N=C\c1ccc(OC(=O)c2ccco2)cc1`, which AC50 is on record?
Answer: > 38 µM (inactive)

Question: Which AC50 does the source give for `O=c1c2ccccc2nc2n1CCS2(=O)=O` here?
Answer: > 38 µM (inactive)

Question: For `N=c1c2c(ncn1Cc1ccco1)Oc1ccc3ccccc3c1C2c1ccccc1` (centres undefined), which AC50 is on record?
Answer: 13.1 µM

Question: For `Cc1[nH]nc2c1C1(CCOCC1)C(C#N)=C(N)O2`, which AC50 is on record?
Answer: > 38 µM (inactive)

Question: With `CCOC(=O)c1cc2cc3ccccc3cc2[nH]1` as the compound, how does the AC50 read?
Answer: > 38 µM (inactive)

Question: With `Cc1[nH]nc2c1C1(CCC(c3ccccc3)CC1)C(C#N)=C(N)O2` (centres undefined) as the compound, how does the AC50 read?
Answer: > 38 µM (inactive)

Question: For `CCN(CC)C(=O)CSc1nnc2nnc3cc(Cl)ccc3n12`, which AC50 is on record?
Answer: > 38 µM (inactive)

Question: Which AC50 does the source give for `CCOC(=O)c1c(CC(C)C)csc1NC(=O)CCl` here?
Answer: 3.33 µM

Question: With `CC1=NN(c2nc(-c3ccccc3)cs2)C(=O)C1` as the compound, how does the AC50 read?
Answer: 18.8 µM

Question: For `Cc1[nH][nH]c(=O)c1C(c1ccc(-c2cccc(Cl)c2)o1)c1c(C)[nH][nH]c1=O`, which AC50 is on record?
Answer: > 38 µM (inactive)

Question: With `CCOC(=O)C(CC)Sc1ncnc2c1nnn2-c1ccc(F)cc1` (centres undefined) as the compound, how does the AC50 read?
Answer: > 38 µM (inactive)

Question: With `CC1=NNC(=O)C1C(c1ccc(F)cc1)C(C#N)C#N` (centres undefined) as the compound, how does the AC50 read?
Answer: > 38 µM (inactive)

Question: Which AC50 does the source give for `COc1cc(/C=C2/SC(=S)NC2=O)ccc1OS(=O)(=O)c1ccc(C)cc1` here?
Answer: 5.83 µM
